Among the data in US12539292B2, “BRM targeting compounds and associated methods of use” (Arvinas Operations, Inc., priority 2018, dated 2026) are DC50 and Dmax values, retold here.

This experiment deals with T1, BRM (Homo sapiens, UniProt P51531).
T1 construct: In-Cell Western Screen of BRM Degradation in SW1573 Cells; endogenous in cells; host or cells: SW1573
As to the kind of experiment: In-cell Western screen of BRM degradation in SW1573 cells (Dmax and DC50). Type of experiment: cell-based. The gist of the method:
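SW1573, overnight cpd exposure (18-20 h), 0.1% DMSO final. PFA fix, 0.5% Triton permeabilization, block; IR secondaries at 800/680 nm. Odyssey read → Dmax, DC50.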

Where [1] appears, read: BRM degradation, SW1573 cells, read-out: DC50.
The mark [2] stands for this setting: BRM degradation, SW1573 cells, tested at the top concentration of between 0.3 and 10 μM, read-out: Dmax (%) (% degraded).

Like-named read-outs stand apart in the source and are kept apart here. Some results are limits rather than exact numbers.

T1 sequence (P51531 whole entry): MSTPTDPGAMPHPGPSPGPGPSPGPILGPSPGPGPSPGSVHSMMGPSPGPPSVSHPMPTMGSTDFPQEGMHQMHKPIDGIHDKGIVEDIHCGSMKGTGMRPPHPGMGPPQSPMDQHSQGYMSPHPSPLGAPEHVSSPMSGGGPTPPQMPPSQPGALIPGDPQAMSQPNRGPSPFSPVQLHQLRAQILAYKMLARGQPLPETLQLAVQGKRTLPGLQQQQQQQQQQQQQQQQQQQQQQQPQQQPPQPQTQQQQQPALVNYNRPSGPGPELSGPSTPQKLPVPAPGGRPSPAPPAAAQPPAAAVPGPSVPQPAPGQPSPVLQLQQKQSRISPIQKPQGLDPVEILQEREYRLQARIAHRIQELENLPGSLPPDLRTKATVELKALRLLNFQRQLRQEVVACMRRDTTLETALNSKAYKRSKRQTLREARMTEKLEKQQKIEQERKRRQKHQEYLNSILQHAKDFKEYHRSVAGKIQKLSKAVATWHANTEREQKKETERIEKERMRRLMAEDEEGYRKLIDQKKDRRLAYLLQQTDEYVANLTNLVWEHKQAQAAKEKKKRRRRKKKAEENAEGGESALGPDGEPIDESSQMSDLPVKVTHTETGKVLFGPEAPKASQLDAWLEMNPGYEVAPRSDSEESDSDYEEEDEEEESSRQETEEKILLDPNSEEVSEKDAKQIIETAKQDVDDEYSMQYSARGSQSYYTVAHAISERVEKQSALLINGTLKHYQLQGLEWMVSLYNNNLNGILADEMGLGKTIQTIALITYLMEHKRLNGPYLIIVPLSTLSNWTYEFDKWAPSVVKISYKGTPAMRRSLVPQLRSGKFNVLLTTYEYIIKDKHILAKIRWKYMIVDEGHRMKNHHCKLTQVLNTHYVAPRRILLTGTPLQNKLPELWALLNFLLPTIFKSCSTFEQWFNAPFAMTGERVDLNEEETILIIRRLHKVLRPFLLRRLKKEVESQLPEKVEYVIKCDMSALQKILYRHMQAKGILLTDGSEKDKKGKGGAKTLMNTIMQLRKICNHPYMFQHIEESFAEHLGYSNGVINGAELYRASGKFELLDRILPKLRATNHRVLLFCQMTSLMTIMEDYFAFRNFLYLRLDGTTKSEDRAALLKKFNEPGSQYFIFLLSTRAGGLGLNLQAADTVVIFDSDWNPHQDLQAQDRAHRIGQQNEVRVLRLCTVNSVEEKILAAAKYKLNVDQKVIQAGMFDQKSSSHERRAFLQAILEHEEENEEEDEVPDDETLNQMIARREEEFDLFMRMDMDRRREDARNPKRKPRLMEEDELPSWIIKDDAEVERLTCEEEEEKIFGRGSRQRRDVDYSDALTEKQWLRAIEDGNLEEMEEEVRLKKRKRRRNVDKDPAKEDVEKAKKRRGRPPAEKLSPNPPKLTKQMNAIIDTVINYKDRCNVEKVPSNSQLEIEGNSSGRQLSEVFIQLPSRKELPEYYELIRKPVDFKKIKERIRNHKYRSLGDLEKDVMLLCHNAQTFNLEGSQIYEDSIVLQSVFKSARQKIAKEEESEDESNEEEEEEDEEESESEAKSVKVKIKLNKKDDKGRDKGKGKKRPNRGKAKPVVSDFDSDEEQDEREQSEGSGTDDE

`Cc1ncsc1-c1ccc([C@H](C)NC(=O)[C@@H]2C[C@@H](O)CN2C(=O)[C@H](c2cc(OCC(=O)N3CCC(O[C@H]4C[C@H](Oc5cc(N6C7CCC6CN(c6cc(-c8ccccc8O)nnc6N)C7)ccn5)C4)CC3)no2)C(C)C)cn1` [compound 271, (2S,4R)-1-((2S)-2-(3-(2-(4-((1r,3S)-3-((4-(3-(3-amino-6-(2-hydroxyphenyl)pyridazin-4-yl)-3,8-diazabicyclo[3.2.1]octan-8-yl)pyridin-2-yl)oxy)cyclobutoxy)piperidin-1-yl)-2-oxoethoxy)isoxazol-5-yl)-3-methylbutanoyl)-4-hydroxy-N-((S)-1-(6-(4-methylthiazol-5-yl)pyridin-3-yl)ethyl)pyrrolidine-2-carboxamide]: the half-maximal degradation concentration (DC50) (usually the concentration at which degradation of the target reaches its halfway point) under setting [1] was greater than 30 nM.

For the molecule `CC(C)[C@@H](C(=O)N1C[C@H](O)C[C@H]1C(=O)N[C@@H](C)c1ccc(-c2scnc2N)cc1)c1cc(OCCN2CCC(O[C@H]3C[C@H](Oc4cc(N5C6CCC5CN(c5cc(-c7ccccc7O)nnc5N)C6)ccn4)C3)CC2)no1` [compound 416, (2S,4R)-1-((2R)-2-(3-(2-(4-((1r,3R)-3-((4-(3-(3-amino-6-(2-hydroxyphenyl)pyridazin-4-yl)-3,8-diazabicyclo[3.2.1]octan-8-yl)pyridin-2-yl)oxy)cyclobutoxy)piperidin-1-yl)ethoxy)isoxazol-5-yl)-3-methylbutanoyl)-N-((S)-1-(4-(4-aminothiazol-5-yl)phenyl)ethyl)-4-hydroxypyrrolidine-2-carboxamide], the Dmax (as a rule, the largest share of the target that was removed) (SW1573, % degraded, when tested at the top concentration of between 0.3 and 10 μM, read-out: BRM Dmax (%)) was greater than 75%. The 50% degradation concentration (DC50) (degradation of BRM, read-out: BRM DC50) was less than 2.5 nM.

`Cc1ncsc1-c1ccc([C@H](C)NC(=O)[C@@H]2C[C@@H](O)CN2C(=O)[C@@H](c2cc(OCCN3CC[C@@H](O[C@H]4C[C@H](Oc5cc(N6C7CCC6CN(c6cc(-c8ccccc8O)nnc6N)C7)ccn5)C4)C[C@@H]3C)no2)C(C)C)cc1` [compound 627, (2S,4R)-1-((2R)-2-(3-(2-((2S,4R)-4-((1r,3R)-3-((4-(3-(3-amino-6-(2-hydroxyphenyl)pyridazin-4-yl)-3,8-diazabicyclo[3.2.1]octan-8-yl)pyridin-2-yl)oxy)cyclobutoxy)-2-methylpiperidin-1-yl)ethoxy)isoxazol-5-yl)-3-methylbutanoyl)-4-hydroxy-N-((S)-1-(4-(4-methylthiazol-5-yl)phenyl)ethyl)pyrrolidine-2-carboxamide]: the DC50 under setting [1] is less than 2.5 nM. The Dmax (BRM degradation, SW1573 cells, read-out: Dmax (% degraded)) was greater than 75%.

In the case of `CNC(=O)CCC[C@H](NC(=O)[C@@H]1C[C@@H](O)CN1C(=O)[C@@H](c1cc(OCCN2CCC(O[C@H]3C[C@H](Oc4cc(N5C6CCC5CN(c5cc(-c7ccccc7O)nnc5N)C6)ccn4)C3)CC2)no1)C(C)C)c1ccc(-c2scnc2C)cc1` [compound 570, (2S,4R)-1-((2R)-2-(3-(2-(4-((1r,3R)-3-((4-(3-(3-amino-6-(2-hydroxyphenyl)pyridazin-4-yl)-3,8-diazabicyclo[3.2.1]octan-8-yl)pyridin-2-yl)oxy)cyclobutoxy)piperidin-1-yl)ethoxy)isoxazol-5-yl)-3-methylbutanoyl)-4-hydroxy-N-((S)-5-(methylamino)-1-(4-(4-methylthiazol-5-yl)phenyl)-5-oxopentyl)pyrrolidine-2-carboxamide], the Dmax (BRM degradation, SW1573 cells, Table 2D, read-out: **Dmax (%) (% degraded)) was greater than 75%. Moreover, under “BRM degradation, SW1573 cells, Table 2D, read-out: *DC50”, the DC50 is less than 2.5 nM.

As for `Cc1ncsc1-c1ccc([C@H](CO)NC(=O)[C@@H]2C[C@@H](O)CN2C(=O)[C@H](c2cc(OCCN3CCN(CCOc4cc(N5C6CCC5CN(c5cc(-c7ccccc7O)nnc5N)C6)ccn4)CC3)no2)C(C)C)cc1` [compound 158, (2S,4R)-1-((2S)-2-(3-(2-(4-(2-((4-(3-(3-amino-6-(2-hydroxyphenyl)pyridazin-4-yl)-3,8-diazabicyclo[3.2.1]octan-8-yl)pyridin-2-yl)oxy)ethyl)piperazin-1-yl)ethoxy)isoxazol-5-yl)-3-methylbutanoyl)-4-hydroxy-N-((R)-2-hydroxy-1-(4-(4-methylthiazol-5-yl)phenyl)ethyl)pyrrolidine-2-carboxamide], the DC50 under setting [1] was greater than 30 nM. Further, under setting [2], the maximal degradation (Dmax) was greater than 75%.

For `CC(C)[C@@H](C(=O)N1C[C@H](O)C[C@H]1C(=O)N[C@@H](C)c1ccc(-c2scnc2CO)cc1)c1cc(OCCN2CCC(O[C@H]3C[C@H](Oc4cc(N5C6CCC5CN(c5cc(-c7ccccc7O)nnc5N)C6)ccn4)C3)CC2)no1` [compound 211, (2S,4R)-1-((2R)-2-(3-(2-(4-((1r,3R)-3-((4-(3-(3-amino-6-(2-hydroxyphenyl)pyridazin-4-yl)-3,8-diazabicyclo[3.2.1]octan-8-yl)pyridin-2-yl)oxy)cyclobutoxy)piperidin-1-yl)ethoxy)isoxazol-5-yl)-3-methylbutanoyl)-4-hydroxy-N-((S)-1-(4-(4-(hydroxymethyl)thiazol-5-yl)phenyl)ethyl)pyrrolidine-2-carboxamide], the DC50 under setting [1] is less than 2.5 nM. For the same molecule, the maximal degradation (Dmax) under setting [2] was greater than 75%.

As to `Cc1ncsc1-c1ccc([C@H](C)NC(=O)[C@@H]2C[C@@H](O)CN2C(=O)[C@H](c2cc(N3CCC(O)(CN4CCC(O[C@H]5C[C@H](Oc6cc(N7C8CCC7CN(c7cc(-c9ccccc9O)nnc7N)C8)ccn6)C5)CC4)CC3)no2)C(C)C)cc1` [compound 641, (2S,4R)-1-((2S)-2-(3-(4-((4-((1r,3r)-3-((4-(3-(3-amino-6-(2-hydroxyphenyl)pyridazin-4-yl)-3,8-diazabicyclo[3.2.1]octan-8-yl)pyridin-2-yl)oxy)cyclobutoxy)piperidin-1-yl)methyl)-4-hydroxypiperidin-1-yl)isoxazol-5-yl)-3-methylbutanoyl)-4-hydroxy-N-((S)-1-(4-(4-methylthiazol-5-yl)phenyl)ethyl)pyrrolidine-2-carboxamide], under setting [1], the DC50 was greater than 30 nM.

Take `Cc1ncsc1-c1ccc([C@H](C)NC(=O)[C@@H]2C[C@@H](O)CN2C(=O)[C@@H](c2cc(N3CCC4(CC3)CC(CN3CCC(O[C@H]5C[C@H](Oc6cc(N7C8CCC7CN(c7cc(-c9ccccc9O)nnc7N)C8)ccn6)C5)CC3)C4)no2)C(C)C)cc1` [compound 650, (2S,4R)-1-((2R)-2-(3-(2-((4-((1r,3r)-3-((4-(3-(3-amino-6-(2-hydroxyphenyl)pyridazin-4-yl)-3,8-diazabicyclo[3.2.1]octan-8-yl)pyridin-2-yl)oxy)cyclobutoxy)piperidin-1-yl)methyl)-7-azaspiro[3.5]nonan-7-yl)isoxazol-5-yl)-3-methylbutanoyl)-4-hydroxy-N-((S)-1-(4-(4-methylthiazol-5-yl)phenyl)ethyl)pyrrolidine-2-carboxamide]: the DC50 under setting [1] was greater than 30 nM.

Consider `Cc1ncsc1-c1ccc([C@H](C)NC(=O)[C@@H]2C[C@@H](O)CN2C(=O)[C@H](c2cc(OCCN3CCN(CCOc4cc(N5C6CCC5CN(c5cc(-c7ccccc7O)nnc5N)C6)ccn4)CC3)no2)C(C)C)cc1` [compound 46, (2S,4R)-1-[(2S)-2-[3-[2-(4-[2-[(4-[3-[3-amino-6-(2-hydroxyphenyl)pyridazin-4-yl]-3,8-diazabicyclo[3.2.1]octan-8-yl]pyridin-2-yl)oxy]ethyl]piperazin-1-yl)ethoxy]-1,2-oxazol-5-yl]-3-methylbutanoyl]-4-hydroxy-N-[(1S)-1-[4-(4-methyl-1,3-thiazol-5-yl)phenyl]ethyl]pyrrolidine-2-carboxamide], for which the 50% degradation concentration (DC50) under setting [1] was greater than 30 nM. In addition, the greatest degradation seen (Dmax) (BRM degradation, SW1573 cells, when tested at the top concentration of between 0.3 and 10 μM, read-out: Dmax (%) (% degraded)) is 50 to 75%.
